In brackets after ≈: the same amount, converted by molar mass.
What was measured:
Experiment in all cases: ≥ marks a high value that may be exact or a test limit, other limits are often not marked, values filed in µg/mL are converted to µM
[1] = test system: Escherichia coli ATCC 25922
[2] = test system: Bacillus subtilis ATCC 23857
[3] = test system: Staphylococcus aureus ATCC 25923
[4] = test system: Pseudomonas aeruginosa CMCCB 10104
[5] = test system: Candida albicans ATCC 2002
[6] = test system: Micrococcus luteus
[7] = test system: Staphylococcus epidermidis ATCC 12228
[8] = test system: Staphylococcus aureus ATCC 29213
[9] = test system: Bacillus subtilis 168
[10] = test system: Staphylococcus aureus

| SMILES | MIC [1] | MIC [3] | MIC [4] | MIC [5] | further results |
| --- | --- | --- | --- | --- | --- |
| CC[C@H](C)[C@H](NC(=O)CN)C(=O)N[C@@H](C)C(=O)N[C@@H](C)C(=O)NCC(=O)N[C@H](C(=O)N[C@H](C(=O)N[C@H](C(=O)N[C@@H](CCCCN)C(=O)N[C@H](C(=O)N[C@@H](CCCCN)C(=O)N[C@@H](CCCCN)C(N)=O)[C@@H](C)CC)[C@@H](C)CC)[C@@H](C)CC)[C@@H](C)CC [GIAAGIIIKIKK] | 32 µM (≈ 39.2 µg/mL) | – | – | – | MIC [2]: ≥ 32 µM |
| CC[C@H](C)[C@H](NC(=O)CN)C(=O)N[C@@H](Cc1ccccc1)C(=O)NCC(=O)N[C@@H](CCCCN)C(=O)N[C@H](C(=O)N[C@@H](CC(C)C)C(=O)NCC(=O)N[C@H](C(=O)NCC(=O)N[C@@H](CCCCN)C(=O)N[C@@H](CCCCN)C(=O)N[C@H](C(=O)N[C@@H](CC(C)C)C(=O)N[C@H]1CSSC[C@@H](C(=O)O)NC(=O)[C@H](CCSC)NC(=O)CNC(=O)[C@H](CO)NC(=O)[C@H](CC(C)C)NC(=O)[C@H](CCC(=O)O)NC1=O)[C@@H](C)O)C(C)C)[C@@H](C)CC [GIFGKILGVGKKTLCELSGMC] | 2.92 µM (≈ 6.29 µg/mL) | 2.92 µM (≈ 6.29 µg/mL) | 2.92 µM (≈ 6.29 µg/mL) | 1.49 µM (≈ 3.2 µg/mL) | – |
| CC[C@H](C)[C@H](NC(=O)CN)C(=O)N[C@H](C(=O)N[C@@H](C)C(=O)N[C@@H](C)C(=O)N[C@H](C(=O)N[C@H](C(=O)N[C@H](C(=O)N[C@@H](CCCCN)C(=O)N[C@H](C(=O)N[C@@H](CCCCN)C(=O)N[C@@H](CCCCN)C(N)=O)[C@@H](C)CC)[C@@H](C)CC)[C@@H](C)CC)[C@@H](C)CC)[C@@H](C)CC [GIIAAIIIKIKK] | > 128 µM | – | – | – | MIC [2]: 16 µM (≈ 20.5 µg/mL) |
| CC[C@H](C)[C@H](NC(=O)CNC(=O)[C@H](CO)NC(=O)[C@@H](NC(=O)[C@H](CC(C)C)NC(=O)[C@H](CCC(=O)O)NC(=O)[C@H](CO)NC(=O)[C@H](C)NC(=O)[C@H](CCCCN)NC(=O)[C@H](CC(=O)O)NC(=O)[C@H](CCCCN)NC(=O)[C@@H](NC(=O)[C@H](CCCCN)NC(=O)[C@H](CCC(N)=O)NC(=O)[C@H](Cc1c[nH]c2ccccc12)NC(=O)[C@H](CC(C)C)NC(=O)CN)[C@@H](C)CC)C(C)C)C(=O)N[C@H](C(=O)N[C@@H](CCC(=O)O)C(=O)NCC(=O)N[C@H](C(=O)N[C@@H](CCCCN)C(N)=O)C(C)C)C(C)C [GLWQKIKDKASELVSGIVEGVK] | – | – | – | – | MIC [6]: 0.168 µM (≈ 0.4 µg/mL) |
| CC[C@H](C)[C@H](NC(=O)[C@H](CC(C)C)NC(=O)[C@H](CCC(N)=O)NC(=O)[C@@H](NC(=O)[C@H](C)NC(=O)CNC(=O)[C@H](CCCCN)NC(=O)[C@@H](NC(=O)[C@H](CC(C)C)NC(=O)[C@@H](NC(=O)[C@H](Cc1ccccc1)NC(=O)[C@@H](NC(=O)CN)C(C)C)[C@@H](C)O)[C@@H](C)CC)[C@@H](C)O)C(=O)NCC(=O)N[C@@H](CCCCN)C(=O)N[C@H](C(=O)N[C@@H](CC(C)C)C(=O)NCC(=O)N[C@@H](CCCCN)C(=O)N[C@@H](CCC(=O)O)C(=O)N[C@H](C(=O)NCC(=O)N[C@@H](CCCCN)C(=O)N[C@H](C(=O)NCC(=O)N[C@@H](CC(C)C)C(=O)N[C@@H](CCC(=O)O)C(=O)N[C@@H](CC(C)C)C(=O)N[C@@H](CCSC)C(=O)N[C@@H](C)C(=O)N[C@H]1CSSC[C@@H](C(=O)O)NC(=O)[C@H](CCC(N)=O)NC(=O)[C@H](CCCCN)NC(=O)[C@H]([C@@H](C)O)NC(=O)[C@H]([C@@H](C)CC)NC(=O)[C@H](CCCCN)NC1=O)[C@@H](C)O)C(C)C)[C@@H](C)O [GVFTLIKGATQLIGKTLGKEVGKTGLELMACKITKQC] | 2.09 µM (≈ 8.1 µg/mL) | 1.06 µM (≈ 4.1 µg/mL) | 4.18 µM (≈ 16.2 µg/mL) | 2.09 µM (≈ 8.1 µg/mL) | – |
| CC[C@H](C)[C@H](NC(=O)[C@H](CC(C)C)NC(=O)[C@H](CC(C)C)NC(=O)[C@H](CC(=O)O)NC(=O)[C@H](CCCCN)NC(=O)[C@@H](NC(=O)[C@@H](NC(=O)CNC(=O)[C@H](CCSC)NC(=O)[C@@H](NC(=O)[C@@H](N)CO)C(C)C)[C@@H](C)O)C(C)C)C(=O)NCC(=O)N[C@@H](C)C(=O)NCC(=O)N[C@@H](CCCCN)C(=O)N[C@@H](CO)C(=O)N[C@@H](C)C(=O)N[C@@H](C)C(=O)N[C@@H](CCC(N)=O)C(=O)N[C@@H](CO)C(=O)N[C@H](C(=O)N[C@@H](CC(C)C)C(=O)N[C@@H](CCCCN)C(=O)N[C@@H](C)C(=O)N[C@@H](CC(C)C)C(=O)N[C@@H](CO)C(=O)N[C@H]1CSSC[C@@H](C(=O)O)NC(=O)[C@H](CC(=O)O)NC(=O)[C@H](CCCCN)NC(=O)[C@H](CO)NC(=O)[C@H](CC(C)C)NC(=O)[C@H](CCCCN)NC1=O)C(C)C [SVMGTVKDLLIGAGKSAAQSVLKALSCKLSKDC] | 3.16 µM (≈ 10.5 µg/mL) | 3.16 µM (≈ 10.5 µg/mL) | 6.32 µM (≈ 21 µg/mL) | 3.16 µM (≈ 10.5 µg/mL) | – |

Continued by falling MIC [1], values first:

| MIC [1] | MIC [3] | MIC [4] | MIC [5] | SMILES | further results |
| --- | --- | --- | --- | --- | --- |
| 128 µM (≈ 209 µg/mL) | – | – | – | CC[C@H](C)[C@H](N)C(=O)N[C@@H](CC(=O)O)C(=O)N[C@@H](Cc1c[nH]c2ccccc12)C(=O)N[C@@H](CCCCN)C(=O)N[C@@H](CCCCN)C(=O)N[C@@H](CC(C)C)C(=O)N[C@@H](CC(C)C)C(=O)N1CCC[C@H]1C(=O)N[C@@H](C)C(=O)N[C@@H](C)C(=O)N[C@@H](CCCCN)C(=O)N[C@@H](CCC(N)=O)C(=O)N[C@H](C(=O)N[C@@H](CC(C)C)C(N)=O)[C@@H](C)CC [IDWKKLLPAAKQIL] | MIC [7]: 256 µM (≈ 419 µg/mL); MIC [2]: ≥ 32 µM; MIC [8]: 512 µM (≈ 838 µg/mL) |
| 31.8 µM (≈ 62.5 µg/mL) | – | – | – | CSCC[C@H](NC(=O)[C@H](C)NC(=O)[C@H](CCCCN)NC(=O)[C@H](CCCN=C(N)N)NC(=O)[C@H](C)NC(=O)[C@H](CCCN=C(N)N)NC(=O)[C@H](CCC(=O)O)NC(=O)[C@@H](NC(=O)[C@H](CCCCN)NC(=O)CNC(=O)CNC(=O)CNC(=O)[C@H](Cc1ccccc1)NC(=O)[C@H](CCCCN)NC(=O)[C@@H](N)CCCCN)[C@@H](C)O)C(=O)N[C@@H](C)C(=O)N[C@H](C(=O)N[C@@H](CCC(=O)O)C(=O)O)C(C)C [KKFGGGKTERARKAMAVE] | MIC [6]: 31.8 µM (≈ 62.5 µg/mL); MIC [9]: 7.94 µM (≈ 15.6 µg/mL); MIC [10]: 7.94 µM (≈ 15.6 µg/mL) |
| 4.45 µM (≈ 15.8 µg/mL) | 2.22 µM (≈ 7.9 µg/mL) | 2.22 µM (≈ 7.9 µg/mL) | 4.45 µM (≈ 15.8 µg/mL) | CC[C@H](C)[C@H](NC(=O)[C@H](C)NC(=O)[C@H](CC(C)C)NC(=O)[C@H](CCC(=O)O)NC(=O)[C@H](CCCCN)NC(=O)[C@H](Cc1ccccc1)NC(=O)[C@@H](NC(=O)[C@H](CO)NC(=O)[C@H](CC(C)C)NC(=O)[C@H](Cc1ccccc1)NC(=O)[C@@H](N)CO)[C@@H](C)O)C(=O)N[C@@H](CC(N)=O)C(=O)N[C@@H](C)C(=O)N[C@@H](C)C(=O)N[C@@H](CCCCN)C(=O)N[C@@H](CC(N)=O)C(=O)N[C@@H](C)C(=O)NCC(=O)N[C@@H](CCC(N)=O)C(=O)N[C@@H](CO)C(=O)N[C@@H](CC(C)C)C(=O)N[C@@H](CC(C)C)C(=O)N[C@@H](Cc1cnc[nH]1)C(=O)N[C@H](C(=O)N[C@@H](CC(C)C)C(=O)N[C@@H](CO)C(=O)N[C@H]1CSSC[C@@H](C(=O)O)NC(=O)[C@H]([C@@H](C)O)NC(=O)[C@H](CCCCN)NC(=O)[C@H](CC(=O)O)NC(=O)[C@H](CC(C)C)NC(=O)[C@H](CCCCN)NC1=O)[C@@H](C)O [SFLSTFKELAINAAKNAGQSLLHTLSCKLDKTC] | – |
| 1.41 µM (≈ 4.7 µg/mL) | 2.83 µM (≈ 9.39 µg/mL) | 1.41 µM (≈ 4.7 µg/mL) | 1.41 µM (≈ 4.7 µg/mL) | CC[C@H](C)[C@H](NC(=O)[C@H](CC(C)C)NC(=O)[C@H](CC(C)C)NC(=O)[C@H](CC(=O)O)NC(=O)[C@H](CCCCN)NC(=O)[C@@H](NC(=O)[C@@H](NC(=O)CNC(=O)[C@H](CCSC)NC(=O)[C@@H](NC(=O)[C@@H](N)CO)C(C)C)[C@@H](C)O)C(C)C)C(=O)NCC(=O)N[C@@H](C)C(=O)NCC(=O)N[C@@H](CCCCN)C(=O)N[C@@H](CO)C(=O)N[C@@H](C)C(=O)N[C@@H](C)C(=O)N[C@@H](CCC(N)=O)C(=O)N[C@@H](CO)C(=O)N[C@H](C(=O)N[C@@H](CC(C)C)C(=O)N[C@@H](CCCCN)C(=O)N[C@@H](CO)C(=O)N[C@@H](CC(C)C)C(=O)N[C@@H](CO)C(=O)N[C@H]1CSSC[C@@H](C(=O)O)NC(=O)[C@H](CC(=O)O)NC(=O)[C@H](CC(N)=O)NC(=O)[C@H](CO)NC(=O)[C@H]([C@@H](C)CC)NC(=O)[C@H](CCCCN)NC1=O)C(C)C [SVMGTVKDLLIGAGKSAAQSVLKSLSCKISNDC] | – |
| 0.247 µM (≈ 1.2 µg/mL) | 0.247 µM (≈ 1.2 µg/mL) | 0.247 µM (≈ 1.2 µg/mL) | 0.494 µM (≈ 2.4 µg/mL) | CC[C@H](C)[C@H](NC(=O)CNC(=O)[C@H](CCCCN)NC(=O)CNC(=O)[C@@H](NC(=O)[C@H](Cc1ccccc1)NC(=O)[C@H](CCCCN)NC(=O)[C@H](CO)NC(=O)[C@H](Cc1ccccc1)NC(=O)[C@H](CC(C)C)NC(=O)CN)C(C)C)C(=O)N[C@@H](CCCCN)C(=O)N[C@@H](CC(N)=O)C(=O)N[C@@H](Cc1ccccc1)C(=O)N[C@@H](CC(C)C)C(=O)N[C@H](C(=O)N[C@@H](CCCCN)C(=O)NCC(=O)N[C@H](C(=O)N[C@@H](CCCCN)C(=O)N[C@@H](Cc1cnc[nH]1)C(=O)N[C@H](C(=O)NCC(=O)N[C@@H](CCCCN)C(=O)N[C@@H](CCC(=O)O)C(=O)N[C@H](C(=O)NCC(=O)N[C@@H](CCSC)C(=O)N[C@@H](CC(=O)O)C(=O)N[C@H](C(=O)N[C@H](C(=O)N[C@@H](CCCN=C(N)N)C(=O)N[C@H](C(=O)NCC(=O)N[C@H](C(=O)N[C@@H](CC(=O)O)C(=O)N[C@H](C(=O)N[C@@H](C)C(=O)NCC(=O)N[C@H]1CSSC[C@@H](C(=O)O)NC(=O)[C@H](C(C)C)NC(=O)CNC(=O)[C@H](CCCCN)NC(=O)[C@H]([C@@H](C)CC)NC(=O)[C@H](CCCCN)NC1=O)C(C)C)[C@@H](C)CC)C(C)C)[C@@H](C)CC)C(C)C)C(C)C)[C@@H](C)CC)C(C)C)[C@@H](C)CC [GLFSKFVGKGIKNFLIKGVKHIGKEVGMDVIRVGIDVAGCKIKGVC] | – |

Reference: DBAASP
